Assay results taken from publication PMC11325084, “Pharmacokinetics and tissue distribution of LN002, a new compound alternative oxidase inhibitor against Cryptosporidium in rats” (Frontiers in Pharmacology, 2024).
Read-outs that look alike come from different tables or passages of the source.

How the values were obtained:
[1] = Pharmacokinetics of LN002 in rat plasma after single intravenous injection or oral gavage; format: in vivo, Sprague–Dawley (SD) rats; conditions: rats; for AUC(0-t): read-out: AUC0–24 h
Protocol: A total of 24 SD rats, half for each sex, were randomly distributed into four groups and used in the plasma PK study. Heparin sodium was used to prevent blood clotting. Groups 1, 2, and 3 were single-dose oral administration groups, and the administered doses were 100, 200, and 400 mg/kg, respectively. The fourth group was a single-dose group, in which the subjects received 1 mg/kg LN002 via tail vein intravenous injection (In the oral administration group, the drugs were dissolved in 0.5% sodium carboxymethylcellulose, whereas those in the intravenous injection group were dissolved in N,N-dimethylformamide). After administration for each group, approximately 200–300 μL of plasma samples were collected from the tail vein at predefined times (0.167, 0.5, 0.75, 1, 2, 3, 4, 6, 8, 12, and 24 h) ([Song et al., 2021a]). Subsequently, these samples were then placed in centrifuge tubes containing heparin sodium, subjected to centrifugation at 5000 rpm for 10 min at 4°C, and the resulting supernatant was collected and stored at −20°C until further analysis. An aliquot of 100 µL of rat plasma was transferred into a 2 mL Eppendorf (EP) tube and precipitated with 300 µL of acetonitrile. The mixture was vortexed for 1 min, then centrifuged at 13,000 rpm at 4°C for 10 min, and passed through a 0.22 μm filter membrane. Final analysis was conducted by injecting 20 µL of supernatant into HPLC. A Shimadzu LC-20A system (Shimadzu Technologies, Kyoto, Japan) equipped with a LabSolutions system (version 5.1) system was used for HPLC analysis. The separation process utilized an ARD-C18 column (250 mm × 4.6 mm, 5 µm) (Zhongpu Technology Co., Ltd., Fuzhou, China). The analytes were detected using a UV detector at 333 nm. The chromatographic conditions used an isocratic mobile phase that combines methanol (solvent A) and deionized water (solvent B) (75:25, v/v), and they were propelled through the column at a constant flow rate of 1 mL/min, ensuring uniform separation. The injection volume was 20 μL. The temperature of the column was set to 40°C. Pharmacokinetic data were obtained via non-compartmental PK analysis of total concentration versus time profiles for plasma using Phoenix WinNonlin 8.2 (Certara, L.P., Princeton, NJ, United States). Statistical analysis and graphing were undertaken using GraphPad Prism 9.5 for Windows (GraphPad Software, Inc., La Jolla, CA, United States).

[2] = Stability of LN002 stock solution; format: physicochemical; conditions: for Stock solution stability, measured concentration: nominal concentration 1,000 ng/mL, n = 6, mean ± SD
Protocol: LN002 was dissolved in N,N-dimethylformamide, then mixed to make a concentration of 1 mg/mL standard solution, and stored at −20°C. By investigating the low, middle, and high-concentration stability of rat plasma, the liver and intestinal contents in six replicates at different storage conditions, autosampler, short-term, freeze and thaw, long-term stability, and stock solution stability evaluations were conducted.

[3] = both sexes, Sprague-Dawley, rat, iv, plasma, i.v. 1 mg/kg, n = 6, mean ± SD
[4] = both sexes, Sprague-Dawley, rat, plasma, iv, 1 mg/kg, i.v. 1 mg/kg, n = 6, mean ± SD
[5] = both sexes, Sprague-Dawley, rat, plasma, po, 100 mg/kg, oral 100 mg/kg, n = 6, mean ± SD
[6] = both sexes, Sprague-Dawley, rat, plasma, po, 200 mg/kg, oral 200 mg/kg, n = 6, mean ± SD
[7] = both sexes, Sprague-Dawley, rat, plasma, po, 400 mg/kg, oral 400 mg/kg, n = 6, mean ± SD
[8] = both sexes, Sprague-Dawley, rat, plasma, po, 400 mg/kg, oral single dose, range across 100, 200 and 400 mg/kg
[9] = both sexes, Sprague-Dawley, rat, plasma, oral 100 mg/kg, n = 6, mean ± SD
[10] = both sexes, Sprague-Dawley, rat, plasma, oral 200 mg/kg, n = 6, mean ± SD
[11] = both sexes, Sprague-Dawley, rat, plasma, oral 400 mg/kg, n = 6, mean ± SD

Tmax ([1]; both sexes, Sprague-Dawley, rat, iv, plasma, i.v. 1 mg/kg, n = 6): 0.75 h
AUC(0-inf) [1, 3]: 8650 ± 1940 ng·h/mL
clearance [1, 3]: 1.83 mL/min/kg
Vd ([1]; both sexes, Sprague-Dawley, rat, iv, plasma, i.v. 1 mg/kg, n = 6, mean ± SD, read-out: Vd): 1.69 ± 0.44 L/kg
Cmax [1, 4]: 2940 ± 2160 ng/mL
half-life [1, 4]: 10.9 ± 6.56 h
AUC(0-t) ([1]; both sexes, Sprague-Dawley, rat, plasma, iv, 1 mg/kg, plasma, i.v. 1 mg/kg, n = 6, mean ± SD): 7020 ± 1520 ng·h/mL
Cmax [1, 5]: 850 ± 190 ng/mL
half-life [1, 5]: 18 ± 5.82 h
bioavailability ([1]; both sexes, Sprague-Dawley, rat, plasma, po, 100 mg/kg, oral 100 mg/kg, read-out: F (oral bioavailability)): 0.32%
AUC(0-t) ([1]; both sexes, Sprague-Dawley, rat, plasma, po, 100 mg/kg, plasma, oral 100 mg/kg, n = 6, mean ± SD): 2280 ± 227 ng·h/mL
CL/F ([1]; both sexes, Sprague-Dawley, rat, plasma, po, 100 mg/kg, plasma, oral 100 mg/kg, n = 6, mean ± SD, read-out: Cl (Cl/F in text) (converted)): 433 mL/min/kg
Cmax [1, 6]: 1670 ± 106 ng/mL
half-life [1, 6]: 18 ± 14.8 h
bioavailability ([1]; both sexes, Sprague-Dawley, rat, plasma, po, 200 mg/kg, oral 200 mg/kg, read-out: F (oral bioavailability)): 0.29%
AUC(0-t) ([1]; both sexes, Sprague-Dawley, rat, plasma, po, 200 mg/kg, plasma, oral 200 mg/kg, n = 6, mean ± SD): 4070 ± 779 ng·h/mL
CL/F ([1]; both sexes, Sprague-Dawley, rat, plasma, po, 200 mg/kg, plasma, oral 200 mg/kg, n = 6, mean ± SD, read-out: Cl (Cl/F in text) (converted)): 524 mL/min/kg
Cmax [1, 7]: 4030 ± 410 ng/mL
half-life [1, 7]: 18.8 ± 11.4 h
bioavailability ([1]; both sexes, Sprague-Dawley, rat, plasma, po, 400 mg/kg, oral 400 mg/kg, read-out: F (oral bioavailability)): 0.27%
Cmax [1, 8]: 850 to 4030 ng/mL
half-life [1, 8]: 18 to 18.8 h
bioavailability ([1]; both sexes, Sprague-Dawley, rat, plasma, po, 400 mg/kg, oral single dose, range across 100, 200 and 400 mg/kg, read-out: F): 0.27 to 0.32%
AUC(0-t) ([1]; both sexes, Sprague-Dawley, rat, plasma, po, 400 mg/kg, plasma, oral 400 mg/kg, n = 6, mean ± SD): 7500 ± 507 ng·h/mL
CL/F ([1]; both sexes, Sprague-Dawley, rat, plasma, po, 400 mg/kg, plasma, oral 400 mg/kg, n = 6, mean ± SD, read-out: Cl (Cl/F in text) (converted)): 650 mL/min/kg
AUC(0-t) ([1]; both sexes, Sprague-Dawley, rat, plasma, po, 400 mg/kg, plasma, oral single dose, range across 100, 200 and 400 mg/kg): 2280 to 7500 ng·h/mL
CL/F ([1]; both sexes, Sprague-Dawley, rat, plasma, po, 400 mg/kg, plasma, oral single dose, range across 100, 200 and 400 mg/kg, read-out: Cl/F): 433 to 650 mL/min/kg
Tmax ([1]; both sexes, Sprague-Dawley, rat, plasma, oral 100 mg/kg, n = 6): 1 h
AUC(0-inf) [1, 9]: 3530 ± 734 ng·h/mL
Vd/F [1, 9]: 582 ± 270 L/kg
Tmax ([1]; both sexes, Sprague-Dawley, rat, plasma, oral 200 mg/kg, n = 6): 1 h
AUC(0-inf) [1, 10]: 6030 ± 2310 ng·h/mL
Vd/F [1, 10]: 764 ± 314 L/kg
AUC(0-inf) [1, 11]: 11400 ng·h/mL
Vd/F [1, 11]: 869 ± 279 L/kg
Tmax ([1]; both sexes, Sprague-Dawley, rat, plasma, oral single dose, across 100, 200 and 400 mg/kg): 1 h
PK behaviour over dose (in words) ([1]; oral 100, 200 and 400 mg/kg): linear
Vd ([1]; plasma, oral single dose, range across 100, 200 and 400 mg/kg): 581.54 to 869.21 L/kg
Stock solution stability, measured concentration ([2]; 15 d): 0.941 ± 0.091
Stock solution stability, measured concentration ([2]; 30 d): 0.924 ± 0.051
Degradation of stock solution (in words) ([2]; stock solution, 15 d and 30 d): no appreciable degradation
Structure (SMILES): N#C/C(=C\c1c[nH]nc1-c1ccccc1)c1nn(-c2ccccc2)c(N)c1C#N [LN002, 5-amino-3-[1-cyano-2-(3-phenyl-4-vinopyrazole))-1-phenyl-4-vinopyrazole]
